The values below come from article PMC8747069, “Sesquiterpene Lactones with Dual Inhibitory Activity against the Trypanosoma brucei Pteridine Reductase 1 and Dihydrofolate Reductase” (Molecules, 2021).

The test system of one assay is T. brucei rhodesiense. The conditions noted are these: in vitro growth inhibition; cited from earlier work.
For another assay, the target named is T1, TbPTR1 (Trypanosoma brucei brucei, UniProt O76290).
T1 sequence (O76290 1-268): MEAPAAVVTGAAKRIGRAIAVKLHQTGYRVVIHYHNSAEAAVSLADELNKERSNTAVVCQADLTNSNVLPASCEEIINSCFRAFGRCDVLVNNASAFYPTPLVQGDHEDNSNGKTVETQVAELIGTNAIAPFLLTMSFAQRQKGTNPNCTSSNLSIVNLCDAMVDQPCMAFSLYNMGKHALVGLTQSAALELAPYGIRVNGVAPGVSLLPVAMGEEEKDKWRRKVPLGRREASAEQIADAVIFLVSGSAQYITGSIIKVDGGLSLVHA
Put plainly: Spectrophotometric inhibition assay with recombinant TbPTR1. It counts as biochemical. The conditions noted are these: for inhibition at 100 µM: read-out: TbPTR1 Inhibition at 100 µM (%); for EC50: EC50 reported because complete inhibition not reached (solubility issues), read-out: TbPTR1 EC50 (footnote a in IC50 column). The procedure: The concentration and the activity of TbPTR1, as well as the saturating conditions of its substrate and co-substrate were determined by monitoring the oxidation of the co-substrate NADPH to NADP^+ via UV/Vis spectroscopy (Hitachi U-2900, Tokyo, Japan). […] The experiments were carried out as triplicates using buffer A (50 mM Tris/HCl (pH 7.6), 250 mM NaCl).
The concentration of TbPTR1 was 3.23 mg/mL. Its specific activity was calculated to be 0.03 U/mg. All experiments were carried out using the saturating concentrations of folic acid (8 µM) and NADPH (150 µM). The diagrams for the determination of the saturating conditions are depicted in the Supplementary Materials Figure S15.
(§1) All measurements were carried out as duplicates and compared with a reference containing no inhibitor. The reference measurements were used to determine the full catalytic activity of the respective enzyme (100%), and the relative catalytic activity of all following measurements including inhibitors was calculated accordingly.
(§2) The compounds that were able to inhibit the activity of TbPTR1 or TbDHFR ≥ 50% in the single concentration assays were further investigated by the determination of their half maximal inhibitory concentration (IC50), including at least five inhibitor concentrations. If a complete inhibition of the enzyme could not be achieved experimentally due to the given assay conditions, the half maximal effective concentration (EC50) was determined instead. All measurements were carried out as triplicates against a reference containing no inhibitor at saturating conditions (Section 4.8.). The documented enzyme activity was analysed by nonlinear regression using GraphPad Prism 8 (GraphPad Software Inc., La Jolla, CA, USA).

For another assay, the target named is TbDHFR (Trypanosoma brucei brucei, UniProt Q27783). Put plainly: Spectrophotometric inhibition assay with recombinant TbDHFR. It counts as biochemical. As to conditions: for inhibition at 50 µM / TbDHFR Inhibition at 50 µM (%): NADPH 150 µM, DHF 50 µM. Here is the method: Kinetic analysis of TbDHFR was performed according to 4.5. All measurements were carried out as triplicates using buffer B (50 mM Tris/HCl (pH 7.6), 250 mM NaCl, 10 mM BME).
TbDHFR, sequence (Q27783 28-238 limits assumed): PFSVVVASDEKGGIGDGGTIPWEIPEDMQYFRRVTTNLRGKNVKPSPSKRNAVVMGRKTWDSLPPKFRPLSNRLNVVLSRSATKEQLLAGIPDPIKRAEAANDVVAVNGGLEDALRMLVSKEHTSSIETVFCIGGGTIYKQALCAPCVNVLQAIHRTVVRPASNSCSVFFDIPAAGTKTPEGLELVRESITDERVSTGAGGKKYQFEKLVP
The concentration of TbDHFR was 0.04 mg/mL with a specific activity of 38.1 U/mg. All experiments were carried out using the saturating concentrations of dihydrofolate (DHF, 50 µM) and NADPH (150 µM). The diagrams for the determination of the saturating conditions are depicted in the Supplementary Materials Figure S16.
as §1, §2

The next assay has as its system T. brucei. Also on record: method as in PMID 22331812. The conditions noted are these: acute mouse model; cited from earlier work.
Where [1] appears, read: 100 µM compound, NADPH 150 µM, folic acid 8 µM.
Setting [2] is: 50 µM compound, read-out: TbDHFR Inhibition at 50 µM (%).

Where two headings read alike, the source gives them in different places.

As usually defined, the IC50 is the point on the concentration scale where inhibition reaches its midpoint. What is called inhibition is the share of the control response that was lost under treatment. In general, EC50 refers to the concentration needed to bring the measured effect to its halfway point. Turning to `C=C1C(=O)O[C@@H]2/C=C(\CO)CC/C=C(\C)C[C@H](OC(=O)C(=C)[C@H](O)CO)[C@@H]12` [Compound 1, cnicin], the IC50 in the assay with T. brucei rhodesiense was 400 nM. The inhibition at 100 µM at TbPTR1 (setting [1]) turned out to be 63.9%. The EC50 at TbPTR1 came to 21200 nM. Also, the inhibition at 50 µM on TbDHFR (setting [2]) was 15.2%.

As to `C=C(CO)C(=O)O[C@H]1CC(=C)[C@@H]2C[C@H](O)C(=C)[C@@H]2[C@H]2OC(=O)C(=C)[C@@H]21` [Compound 2, cynaropicrin], the IC50 was 300 nM in the assay with T. brucei rhodesiense, 12400 nM at TbPTR1 and 7100 nM on TbDHFR. For the same molecule, the “in vivo activity against the parasite” value in the assay with T. brucei was “in vivo activity against the parasite”. For the same molecule, at TbPTR1, the inhibition at 100 µM came to 92.1%.

As to `C=C1C(=O)OC2C1CC(OC(=O)C(C)C(C)O)C(C)=CCCC1(C)OC21` (stereo not shown) [Compound 3], the IC50 in the assay with T. brucei rhodesiense is 1300 nM; on TbPTR1 (saturating conditions, nonlinear regression, read-out: TbPTR1 IC50), 40500 nM; on TbDHFR (saturating conditions, nonlinear regression, read-out: TbDHFR IC50) it was 13300 nM. The inhibition at 100 µM at TbPTR1 (setting [1]) is 73.1%. Moreover, the inhibition at 50 µM on TbDHFR (setting [2]) is above 50%.

Consider `C=C1C(=O)O[C@@H]2/C=C(/CO)C3=CC(=O)[C@@](C)(C[C@@H](OC(=O)/C(C)=C\C)[C@@H]12)O3` [Compound 4], for which the results for the IC50 with T. brucei rhodesiense and on TbPTR1 were 100 nM and 30500 nM, respectively. Also, on TbPTR1 (setting [1]), the inhibition at 100 µM was found to be 79.9%. The inhibition at 50 µM at TbDHFR (setting [2]) stood at 34.9%.

`C=C1C(=O)OC2C=C(C)C(OC(C)=O)CC=C(C)CC(OC(=O)C(=CCO)CO)C12` (stereo not shown) [Compound 5, (Z)-eucannabinolide]: the concentration for half-maximal inhibition (IC50) in the assay on T. brucei rhodesiense was 1700 nM. The inhibition at 100 µM on TbPTR1 (setting [1]) came out at 58.1%. Besides, the EC50 at TbPTR1 came out at 31500 nM. For the same molecule, the “TbDHFR Inhibition at 50 µM (%)” value on TbDHFR (50 µM compound) was “No TbDHFR inhibition could be detected and n.i”.

For the molecule `C=C1C(=O)OC2C=C(C)C(OC(=O)C(O)C(C)C)CC=C(C)CC(OC(=O)C(=CCO)CO)C12` (stereo not shown) [Compound 6], the IC50 in the assay with T. brucei rhodesiense is 800 nM. Moreover, the inhibition at 100 µM at TbPTR1 (setting [1]) was found to be 33.1%. The “TbDHFR Inhibition at 50 µM (%)” value at TbDHFR (50 µM compound) is “n.i”.

For `C=C1C(=O)O[C@@H]2/C=C(\C)C[C@H](O)/C=C(\C)C[C@@H](OC(=O)/C(=C\C)COC(C)=O)[C@@H]12` [Compound 7], the IC50 in the assay with T. brucei rhodesiense is 1600 nM. For the same molecule, the inhibition at 100 µM at TbPTR1 was found to be 25.6%. Moreover, on TbDHFR (read-out: TbDHFR Inhibition at 50 µM (%), 50 µM compound), the inhibition at 50 µM came out at 48.7%.

In the case of `C=C1C(=O)O[C@H]2[C@H]1[C@H](OC(=O)/C(=C/COC(=O)C(O)C(C)C)CO)C[C@]1(C)[C@@H]2[C@H](C)C(=O)C[C@H]1O` (stereo partly shown) [Compound 8], in the assay on T. brucei rhodesiense, the IC50 is 2700 nM. Also, at TbPTR1 (setting [1]), the inhibition at 100 µM is 14.2%. Also, at TbDHFR (setting [2]), the inhibition at 50 µM was found to be 40.7%.

As for `C=C1C(=O)OC2C=C(C)C(O)CC=C(C)CC(OC(=O)C(=CCOC(=O)C(O)C(C)C)CO)C12` (stereo not shown) [Compound 9], in the assay on T. brucei rhodesiense, the 50% inhibitory concentration (IC50) was 2600 nM. The inhibition at 100 µM at TbPTR1 (setting [1]) turned out to be 28.5%. For the same molecule, the inhibition at 50 µM at TbDHFR (setting [2]) amounted to 95.9%.

Take `C=C1C(=O)OC2C=C(C)C(O)CC=C(C)CC(OC(=O)C(=CCOC(=O)C(O)C(C)CC)CO)C12` (stereo not shown) [Compound 10]: in the assay with T. brucei rhodesiense, the half-inhibitory concentration (IC50) was 4000 nM. The inhibition at 100 µM at TbPTR1 (setting [1]) was determined as 26.7%. For the same molecule, the inhibition at 50 µM on TbDHFR (setting [2]) came to 20.1%.
